Experimental data published in ChEMBL document CHEMBL6103633 (J Med Chem, 2025).
The source made the active and inactive calls. The rule behind the calls is not given here.

How the values were obtained:
[1] = biological target: T1, Ornithine decarboxylase (Homo sapiens) (UniProt P11926); assay: Inhibition of ODC in human Kelly cells at 500 uM incubated for 2 hrs by liquid scintillation analysis; assay type: cell-based
T1 sequence (whole entry): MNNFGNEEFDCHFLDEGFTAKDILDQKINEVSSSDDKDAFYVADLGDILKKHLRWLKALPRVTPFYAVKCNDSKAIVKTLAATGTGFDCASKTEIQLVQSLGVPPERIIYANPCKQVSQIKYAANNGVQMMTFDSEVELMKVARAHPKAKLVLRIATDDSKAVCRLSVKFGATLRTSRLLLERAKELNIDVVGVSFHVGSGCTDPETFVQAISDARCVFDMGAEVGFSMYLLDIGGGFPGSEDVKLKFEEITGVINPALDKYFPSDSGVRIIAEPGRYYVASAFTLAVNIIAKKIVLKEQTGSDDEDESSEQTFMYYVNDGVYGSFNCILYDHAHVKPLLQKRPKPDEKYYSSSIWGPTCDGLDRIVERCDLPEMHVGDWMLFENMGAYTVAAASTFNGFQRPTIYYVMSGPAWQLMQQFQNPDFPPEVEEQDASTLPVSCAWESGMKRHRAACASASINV

[2] = biological target: T1, Ornithine decarboxylase (Homo sapiens); assay: Inhibition of ODC in human Kelly cells assessed as reduction in spermidine level at 500 microM incubated for 20 min by HPLC analysis; assay type: cell-based
[3] = biological target: T1, Ornithine decarboxylase (Homo sapiens); assay: Inhibition of human ODC in human Kelly cells assessed as reduction in spermine level at 500 microM incubated for 20 min by HPLC analysis; assay type: cell-based
[4] = biological target: T1, Ornithine decarboxylase (Homo sapiens); assay: Inhibition of human ODC in human Kelly cells assessed as effect on putrescine level at 500 microM incubated for 20 min by HPLC analysis; assay type: cell-based
[5] = Cytotoxicity against Normal primary human neonatal fibroblast cell at 500 uM incubated for 72 hrs by SRB assay relative to control; assay type: toxicity, cell-based
[6] = biological target: T1, Ornithine decarboxylase (Homo sapiens); assay: Inhibition of full length C-terminal his-6 tagged human ODC extracted from Escherichia coli BL21 (DE3) cells at 50 uM incubated for 30 mins by liquid scintillation analysis relative to control
[7] = Dissociation constant, pKa of the compound; assay type: physicochemical

| Compound | inhibition [1] | inhibition [2] | inhibition [3] | inhibition [4] | further results |
| --- | --- | --- | --- | --- | --- |
| NCCC[C@](N)(C(=O)O)C(F)F | Active | Active | Active | inactive |  |
| NOC[C@@H]1CCCNC1 |  |  |  |  | Activity [5]: 0% |
| NCCCON | Active | Active | Active | inactive |  |
| NOCC1CNC1 |  |  |  |  | inhibition [6]: 0% |
| NOC[C@H]1CCCNC1 |  |  |  |  | Activity [5]: 0% |
| NOCC1(F)CCNC1 (racemic) | Active | Active | Active | inactive |  |
| Cc1ncc(COP(=O)(O)O)c(/C=N/OCCCN)c1O |  |  |  |  | pKa [7]: ~5.9 |
